Assay results from ChEMBL document CHEMBL1143466, “Conformationally constrained N1-arylsulfonyltryptamine derivatives as 5-HT6 receptor antagonists” (Bioorg Med Chem Lett, 2005).

Columns and labels:
[1] = target: T1, 5-hydroxytryptamine receptor 6 (Homo sapiens, UniProt P50406); assay: Inhibition of cAMP production in HeLa cells expressing human 5-HT6 receptor; assay type: functional, cell-based
[2] = target: T1, 5-hydroxytryptamine receptor 6; assay: Maximum inhibition of cAMP production in HeLa cells expressing human 5-HT6 receptors; assay type: functional, cell-based
[3] = target: T1, 5-hydroxytryptamine receptor 6; assay: Displacement of [3H]LSD from cloned human 5-hydroxytryptamine 6 receptor expressed in HeLa cells; assay type: cell-based
[4] = target: T1, 5-hydroxytryptamine receptor 6; assay: Maximum effective concentration for cAMP production in HeLa cells expressing human 5-HT6 receptors; assay type: functional, cell-based
[5] = target: T1, 5-hydroxytryptamine receptor 6; assay: Effective concentration for cAMP production in HeLa cells expressing human 5-HT6 receptors; assay type: functional, cell-based

T1 sequence (P50406 whole entry): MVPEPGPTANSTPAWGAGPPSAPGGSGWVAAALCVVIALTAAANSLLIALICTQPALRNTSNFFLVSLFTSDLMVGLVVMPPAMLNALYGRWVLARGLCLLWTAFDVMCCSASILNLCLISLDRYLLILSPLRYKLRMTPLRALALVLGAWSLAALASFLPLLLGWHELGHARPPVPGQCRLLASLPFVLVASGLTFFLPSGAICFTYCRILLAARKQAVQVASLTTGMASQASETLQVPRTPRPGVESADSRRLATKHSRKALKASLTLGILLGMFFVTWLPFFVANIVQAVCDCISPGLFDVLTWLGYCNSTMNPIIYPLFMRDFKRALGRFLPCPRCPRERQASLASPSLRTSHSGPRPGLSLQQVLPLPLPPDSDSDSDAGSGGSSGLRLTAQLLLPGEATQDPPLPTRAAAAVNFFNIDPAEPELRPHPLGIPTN

Row | Structure (SMILES) | Emax [4] [%] | EC50 [5] [nM] | IC50 [1] [nM] | Imax [2] [%] | Ki [3] [nM]
1 | CN1CCC(c2cn(S(=O)(=O)c3ccc(I)cc3)c3ccccc23)C1 (stereo not given) | – | – | 43.6 | 93.5 | –
2 | Nc1ccc(S(=O)(=O)n2cc(C3CCN(Cc4ccccc4)C3)c3ccccc32)cc1 (stereo not given) | – | – | 25 | 97 | –
3 | O=S(=O)(c1ccc(Cl)c(Cl)c1)n1cc(C[C@@H]2CCCN2)c2ccccc21 | – | – | – | – | 49
4 | O=S(=O)(c1ccc(Cl)s1)n1cc(C2=CCCNC2)c2ccccc21 | – | – | – | – | 22.7
5 | CN1CCC(c2cn(S(=O)(=O)c3ccc(Cl)cc3)c3ccccc23)C1 (stereo not given) | – | – | 85.5 | 86.5 | –
6 | Cc1c(S(=O)(=O)n2cc(C[C@@H]3CCCN3C)c3ccccc32)sc2ccc(Cl)cc12 | – | – | 11 | 87.5 | 11
7 | COc1ccc(S(=O)(=O)n2cc(C3CCCNC3)c3ccccc32)cc1 (stereo not given) | – | – | 7.3 | 65.5 | –
8 | O=S(=O)(c1ccc(Cl)c(Cl)c1)n1cc(C2CCN(Cc3ccccc3)C2)c2ccccc21 (stereo not given) | – | – | 61 | 63 | –
9 | CN1CCC(c2cn(S(=O)(=O)c3ccc(F)cc3)c3ccccc23)C1 (stereo not given) | – | – | 52.5 | 83.5 | –
10 | COc1ccc(S(=O)(=O)n2cc(C[C@@H]3CCCN3)c3ccccc32)cc1 | – | – | – | – | 40
11 | CN1CCC[C@@H]1Cc1cn(S(=O)(=O)c2ccccc2)c2ccccc12 | – | – | 0.6 | 75 | 8
12 | CN1CCC[C@H]1Cc1cn(S(=O)(=O)c2ccc(Cl)cc2)c2ccccc12 | – | – | 8.2 | 86 | 7
13 | Cc1ccc(S(=O)(=O)n2cc(C[C@@H]3CCCN3)c3ccccc32)cc1 | – | – | – | – | 33
14 | Cc1ccc(S(=O)(=O)n2c3c(c4ccccc42)CCNC3)cc1 | – | – | – | – | 271
15 | CN1CCC(c2cn(S(=O)(=O)c3ccc(N)cc3)c3ccccc23)C1 (stereo not given) | – | – | 15.5 | 89.5 | –
16 | O=S(=O)(c1ccccc1Br)n1cc(C2CCN(Cc3ccccc3)C2)c2ccccc21 (stereo not given) | – | – | 21 | 62 | –
17 | CN1CCC[C@H]1Cc1cn(S(=O)(=O)c2ccccc2)c2ccccc12 | – | – | 81.4 | 87 | 5
18 | CN1CCC[C@H]1Cc1cn(S(=O)(=O)c2ccccc2Br)c2ccccc12 | – | – | 76.5 | 87.5 | 7
19 | O=S(=O)(c1ccccc1F)n1cc(C2=CCCNC2)c2ccccc21 | 52 | 51 | – | – | 9.2
20 | O=S(=O)(c1cccc(Cl)c1)n1cc(C2=CCCNC2)c2ccccc21 | – | – | – | – | 14
21 | O=S(=O)(c1ccc(Br)s1)n1cc(C[C@@H]2CCCN2)c2ccccc21 | – | – | – | – | 20
22 | O=S(=O)(c1ccccc1)n1cc(C2CCCNC2)c2ccccc21 (single isomer, unassigned; enantiomer 1) [listing 1 of 2 here] | 0 | – | – | – | –
23 | O=S(=O)(c1cccc(Cl)c1)n1cc(C[C@@H]2CCCN2)c2ccccc21 | – | – | – | – | 22

Row | Structure (SMILES) | Emax [4] [%] | EC50 [5] [nM] | IC50 [1] [nM] | Imax [2] [%] | Ki [3] [nM]
24 | COc1ccc(S(=O)(=O)n2cc(C[C@@H]3CCCN3C)c3ccccc32)cc1OC | – | – | 0.8 | 100 | 8
25 | O=S(=O)(c1ccccc1)n1cc(C2=CCCNC2)c2ccccc21 | 41 | 159 | – | – | 4.6
26 | CN1CCC[C@H]1Cc1cn(S(=O)(=O)c2ccc(Cl)c(Cl)c2)c2ccccc12 | – | – | 7.3 | 86.5 | 12
27 | CN1CCC[C@@H]1Cc1cn(S(=O)(=O)c2ccc(Br)s2)c2ccccc12 | 76.5 | 103 | – | – | 4
28 | O=S(=O)(c1ccc(F)cc1F)n1cc(C2=CCCNC2)c2ccccc21 | – | – | – | – | 13
29 | O=S(=O)(c1ccc(I)cc1)n1cc(C[C@@H]2CCCN2)c2ccccc21 | – | – | – | – | 34
30 | O=S(=O)(c1cccc(Cl)c1Cl)n1cc(C2=CCCNC2)c2ccccc21 | – | – | – | – | 20
31 | O=S(=O)(c1ccccc1)n1cc(C2CCCNC2)c2ccccc21 (stereo in doubt) [listing 1 of 2 here] | – | 36 | – | – | 1
32 | O=S(=O)(c1ccc(Cl)c(Cl)c1)n1cc(C2=CCCNC2)c2ccccc21 | – | – | – | – | 48
33 | COc1ccc(S(=O)(=O)n2cc(C3CCN(C)C3)c3ccccc32)cc1OC (stereo not given) | – | – | 96.7 | 100 | –
34 | O=S(=O)(c1ccc(Cl)s1)n1cc(C[C@@H]2CCCN2)c2ccccc21 | – | – | – | – | 25
35 | O=S(=O)(c1ccccc1)n1cc(C2CCCNC2)c2ccccc21 (racemic) [listing 1 of 2 here] | 100 | – | – | – | –
36 | O=S(=O)(c1ccccc1)n1c2c(c3ccccc31)CCNC2 | – | – | – | – | 253
37 | COc1ccc(S(=O)(=O)n2cc(C[C@@H]3CCCN3)c3ccccc32)cc1OC | – | – | – | – | 23
38 | COc1ccc(S(=O)(=O)n2cc(C3=CCCNC3)c3ccccc32)cc1 | – | – | – | – | 16
39 | O=S(=O)(c1cccc(Cl)c1)n1c2c(c3ccccc31)CCNC2 | – | – | – | – | 41.7
40 | CN1CCC[C@H]1Cc1cn(S(=O)(=O)c2ccc(Br)s2)c2ccccc12 | – | – | 112 | 96 | 3
41 | CN1CCC[C@H]1Cc1cn(S(=O)(=O)c2ccc(I)cc2)c2ccccc12 | – | – | 49.5 | 99.5 | 3
42 | CN1CCC(c2cn(S(=O)(=O)c3ccccc3Br)c3ccccc23)C1 (stereo not given) | – | – | 53.3 | 98.5 | –
43 | COc1ccc(S(=O)(=O)n2cc(C[C@@H]3CCCN3C)c3ccccc32)cc1 | – | – | – | – | 19.3
44 | Nc1ccc(S(=O)(=O)n2c3c(c4ccccc42)CCNC3)cc1 | – | – | – | – | 116
45 | O=S(=O)(c1ccc(F)c(F)c1)n1cc(C2=CCCNC2)c2ccccc21 | – | – | – | – | 26
46 | Nc1ccc(S(=O)(=O)n2cc(C[C@@H]3CCCN3)c3ccccc32)cc1 | – | – | 7.6 | 72.9 | 7

Row | Structure (SMILES) | Emax [4] [%] | EC50 [5] [nM] | IC50 [1] [nM] | Imax [2] [%] | Ki [3] [nM]
47 | O=S(=O)(c1ccc(Cl)cc1)n1cc(C[C@@H]2CCCN2)c2ccccc21 | – | – | – | – | 49
48 | CN1CCC[C@H]1Cc1cn(S(=O)(=O)c2cccc(Cl)c2)c2ccccc12 | – | – | 96.2 | 77 | 4
49 | CN1CCC(c2cn(S(=O)(=O)c3ccc(Cl)c(Cl)c3)c3ccccc23)C1 (stereo not given) | – | – | 107 | 100 | –
50 | Cc1nc(N)sc1S(=O)(=O)n1cc(C2CCN(Cc3ccccc3)C2)c2ccccc21 (stereo not given) | – | – | 110 | 97 | –
51 | O=S(=O)(c1ccccc1)n1cc(C[C@@H]2CCCN2)c2ccccc21 | – | – | – | – | 27.7
52 | O=S(=O)(c1ccc(Cl)cc1)n1cc(C2=CCCNC2)c2ccccc21 | – | – | – | – | 22
53 | CN1CCC[C@H]1Cc1cn(S(=O)(=O)c2ccc(Cl)s2)c2ccccc12 | – | – | 1 | 99 | 4
54 | O=S(=O)(c1ccccc1Cl)n1cc(C2=CCCNC2)c2ccccc21 | – | – | – | – | 13
55 | O=S(=O)(c1ccc(Br)s1)n1cc(C2CCN(Cc3ccccc3)C2)c2ccccc21 (stereo not given) | – | – | 110 | 69 | –
56 | Cc1ccc(S(=O)(=O)n2cc(C3CCN(Cc4ccccc4)C3)c3ccccc32)cc1 (stereo not given) | – | – | 123 | 72 | –
57 | O=S(=O)(c1cccc(C(F)(F)F)c1)n1cc(C2=CCCNC2)c2ccccc21 | – | – | – | – | 44.7
58 | Cc1c(S(=O)(=O)n2cc(C[C@H]3CCCN3)c3ccccc32)sc2ccc(Cl)cc12 | – | – | – | – | 284
59 | O=S(=O)(c1ccccc1)n1cc(C2CCCNC2)c2ccccc21 (single isomer, unassigned; enantiomer 1) [listing 2 of 2 here] | – | – | – | – | 3
60 | Cc1nc(C)c(S(=O)(=O)n2cc(C3=CCCNC3)c3ccccc32)o1 | – | – | – | – | 58
61 | CN1CCC[C@H]1Cc1cn(S(=O)(=O)c2ccc(N)cc2)c2ccccc12 | – | – | 24.5 | 100 | 3
62 | Cc1c(S(=O)(=O)n2cc(C3CCCNC3)c3ccccc32)sc2ccc(Cl)cc12 (stereo not given) | – | – | – | – | 44
63 | O=S(=O)(c1ccccc1)n1cc(C2CCCNC2)c2ccccc21 (stereo in doubt) [listing 2 of 2 here] | 100 | – | – | – | –
64 | O=S(=O)(c1ccccc1Br)n1cc(C[C@@H]2CCCN2)c2ccccc21 | – | – | – | – | 43
65 | O=S(=O)(c1cccs1)n1cc(C2CCCNC2)c2ccccc21 (stereo not given) | – | – | – | – | 9.8
66 | O=S(=O)(c1ccccc1C(F)(F)F)n1cc(C2=CCCNC2)c2ccccc21 | – | – | – | – | 21.7
67 | Cc1ccc(S(=O)(=O)n2cc(C[C@@H]3CCCN3C)c3ccccc32)cc1 | – | – | 56.3 | 78.5 | 5
68 | O=S(=O)(c1ccccc1)n1cc(C2CCCNC2)c2ccccc21 (racemic) [listing 2 of 2 here] | – | 24 | – | – | –
69 | Cc1nn(C)c(Cl)c1S(=O)(=O)n1cc(C2=CCCNC2)c2ccccc21 | 50 | 89.5 | – | – | 8

Further lines, with some results ahead:

Row | Emax [4] [%] | EC50 [5] [nM] | Structure (SMILES) | IC50 [1] [nM] | Imax [2] [%] | Ki [3] [nM]
70 | 62 | 345 | O=S(=O)(c1ccc(F)cc1)n1cc(C2=CCCNC2)c2ccccc21 | – | – | 10.5
71 | 60.5 | 66 | O=S(=O)(c1ccc(F)c(F)c1)n1cc(C2CCCNC2)c2ccccc21 (stereo not given) | – | – | –
72 | 51.5 | 270 | O=S(=O)(c1cccc(F)c1)n1cc(C2=CCCNC2)c2ccccc21 | – | – | 8.5
73 | 93 | 58.5 | O=S(=O)(c1ccc(Cl)s1)n1cc(C2CCCNC2)c2ccccc21 (stereo not given) | – | – | –
